biological target: T1, TIR1–ASK1–IAA7 auxin receptor complex (ASK1–TIR1–Aux/IAA–IAA receptor complex) (Arabidopsis thaliana, UniProt Q570C0); experiment: auxin-dependent pull-down of ASK1–TIR1 with [3H]-InsP6 by His8-MBP-IAA7; type: binding; details: 0.1 uM IAA versus no auxin; pH 7.5, 4 °C; read-out is recovered [3H]-InsP6
T1 construct: ASK1–TIR1 co-purified from insect cells; IAA7 ORF as recombinant His8-MBP fusion (pET28-His8-MBP vector); mixed at molar ratio 1:3 (ASK1–TIR1 : IAA7); with SKP1-like protein 1A; Auxin-responsive protein IAA7
T1 sequence (Q570C0 1-594): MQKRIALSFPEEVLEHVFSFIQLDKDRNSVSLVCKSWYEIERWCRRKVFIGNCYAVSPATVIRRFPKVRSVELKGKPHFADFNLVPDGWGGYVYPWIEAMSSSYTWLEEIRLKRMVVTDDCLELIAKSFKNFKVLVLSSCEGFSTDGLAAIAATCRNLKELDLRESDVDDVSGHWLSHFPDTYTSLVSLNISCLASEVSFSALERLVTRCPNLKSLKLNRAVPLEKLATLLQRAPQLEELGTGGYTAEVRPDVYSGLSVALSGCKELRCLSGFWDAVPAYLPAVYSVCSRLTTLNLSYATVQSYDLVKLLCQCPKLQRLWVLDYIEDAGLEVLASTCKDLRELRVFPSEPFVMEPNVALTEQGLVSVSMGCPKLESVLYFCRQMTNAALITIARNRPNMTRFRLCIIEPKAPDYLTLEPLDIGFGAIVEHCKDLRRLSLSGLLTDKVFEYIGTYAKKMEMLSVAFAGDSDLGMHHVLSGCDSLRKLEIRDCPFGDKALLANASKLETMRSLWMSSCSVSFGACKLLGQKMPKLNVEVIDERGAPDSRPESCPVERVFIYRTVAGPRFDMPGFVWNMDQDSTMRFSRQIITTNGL
T1 sequence (Q39255 1-160 partner): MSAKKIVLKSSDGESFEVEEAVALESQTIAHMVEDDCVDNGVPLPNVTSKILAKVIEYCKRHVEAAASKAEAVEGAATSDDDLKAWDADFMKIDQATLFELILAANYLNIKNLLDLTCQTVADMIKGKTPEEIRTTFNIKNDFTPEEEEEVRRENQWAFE
T1 sequence (Q38825 1-243 partner): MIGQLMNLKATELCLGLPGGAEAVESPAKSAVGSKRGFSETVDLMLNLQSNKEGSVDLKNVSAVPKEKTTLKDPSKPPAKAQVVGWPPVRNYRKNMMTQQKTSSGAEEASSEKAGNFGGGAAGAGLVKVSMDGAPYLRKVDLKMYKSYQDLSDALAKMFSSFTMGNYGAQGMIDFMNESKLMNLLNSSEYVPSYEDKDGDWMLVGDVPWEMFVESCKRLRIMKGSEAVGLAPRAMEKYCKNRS

Structure (SMILES)	auxin-dependent pull-down of ASK1-TIR1 with [3H]-InsP6 by His8-MBP-IAA7
O=C(O)Cc1c[nH]c2ccccc12 [IAA]	auxin is critical for the interaction between ASK–TIR1 and Aux/IAA protein

biological target: T1, TIR1–ASK1–IAA7 auxin receptor complex (ASK1–TIR1–Aux/IAA–IAA receptor complex); experiment: competitive radioligand displacement of [3H]-InsP6, Ni-NTA pull-down; type: binding; details: not given

Structure (SMILES)	IC50 [nM]
O=P(O)(O)O[C@H]1[C@@H](OP(=O)(O)O)[C@H](OP(=O)(O)O)[C@@H](OP(=O)(O)OP(=O)(O)O)[C@H](OP(=O)(O)O)[C@H]1OP(=O)(O)O [5-InsP7]	20
O=P(O)(O)O[C@@H]1[C@@H](OP(=O)(O)O)[C@@H](OP(=O)(O)O)[C@@H](O)[C@H](OP(=O)(O)O)[C@H]1OP(=O)(O)O [InsP5 [1-OH]]	114
O=P(O)(O)O[C@@H]1[C@@H](OP(=O)(O)O)[C@H](OP(=O)(O)O)[C@@H](O)[C@@H](OP(=O)(O)O)[C@H]1OP(=O)(O)O [InsP5 [3-OH]]	31
O=P(O)(O)O[C@H]1[C@@H](OP(=O)(O)O)[C@H](OP(=O)(O)O)[C@@H](O)[C@H](OP(=O)(O)O)[C@H]1OP(=O)(O)O [InsP5 [5-OH]]	34
O=P(O)(O)O[C@H]1[C@H](OP(=O)(O)O)[C@@H](OP(=O)(O)O)[C@H](OP(=O)(O)O)[C@@H](OP(=O)(O)O)[C@H]1OP(=O)(O)O [InsP6]	19

— article PMC9706486, “INOSITOL (1,3,4) TRIPHOSPHATE 5/6 KINASE1-dependent inositol polyphosphates regulate auxin responses in Arabidopsis” (Plant Physiology, 2022)
